Test results: US4275076A, “Substituted naphthoic acids” (American Cyanamid Company, priority 1980, dated 1981)

Assays:
[1] = tested on: collagenase; details: in words; cited from earlier work
[2] = biological target: T1, human skin fibroblast collagenase (Homo sapiens, UniProt P03956); assay: Collagenase Assay, Test Code 006 (degradation of 14C-labeled native collagen fibrils); type: biochemical; details: 30 μg./ml., 37° C., 16 hours; based on the 0% value for the enzyme control
T1 construct: endogenous in cells; host or cells: human skin fibroblasts
T1 sequence (P03956 100-469): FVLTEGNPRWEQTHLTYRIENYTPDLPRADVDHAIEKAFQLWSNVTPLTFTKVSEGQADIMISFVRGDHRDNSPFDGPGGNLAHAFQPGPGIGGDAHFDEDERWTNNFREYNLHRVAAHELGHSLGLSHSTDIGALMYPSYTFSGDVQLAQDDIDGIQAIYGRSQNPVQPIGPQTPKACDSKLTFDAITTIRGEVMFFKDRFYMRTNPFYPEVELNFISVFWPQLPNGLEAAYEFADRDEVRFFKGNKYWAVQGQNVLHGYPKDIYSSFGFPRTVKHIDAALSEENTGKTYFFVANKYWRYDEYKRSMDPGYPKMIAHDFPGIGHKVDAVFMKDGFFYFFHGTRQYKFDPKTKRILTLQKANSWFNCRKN
Procedure: An active inhibitor would inhibit the degradation of the collagen fibril; (iii) Leukocyte Neutral Proteases Inhibitor Assay--This test measures the ability of neutral proteases derived from human leukocytes to degrade radiolabeled proteoglycans entrapped in polyacrylamide beads.
(i) Collagenase Assay--Test Code 006
Collagenase assays were performed by a modification of the method of Harper, et al., Biochem., 10, 3035 (1971). In a typical assay (total volume of 0.45 ml.), 100 μl. of the activated enzyme was added to the ^14 C-labeled collagen fibrils (250 μl.) followed by 100 μl. of 50 mM cacodylate, pH 7.4, containing 5 mM calcium chloride. After incubation at 37° C. for 16 hours, the tubes were centrifuged in a Beckman microfuge for five minutes at full speed. An aliquot (200 μl.) of the supernatant, representing collagenase digestion products of the fibril, was assayed for radioactivity. The effect of the test compound on collagen degradation by collagenase was examined as follows:
The test compound (in distilled water) was added at a test concentration of 30 μg./ml. to the assay tubes containing active collagenase (total volume 450 μl.) and after 16 hours the amount of radioactivity in the supernatant was determined. Appropriate blanks and trypsin controls were run in parallel.
The activities are expressed as % inhibition (lowering) of collagenase activity, i.e. based on the 0% value for the enzyme control.

[3] = tested on: corneal ulcerations; details: directly applied to the eye, alkali burned rabbit; cited from earlier work
[4] = tested on: collagenase; details: in words; collagenase or a proteinase contaminant in the collagenase preparation; cited from earlier work
[5] = compared with cysteine; cited from earlier work
[6] = tested on: corneal ulceration; details: human; cited from earlier work

c1cnc2c(c1)ccc1cccnc12 [1,10-phenanthroline]
collagenase inhibition [1]: collagenase inhibitors

CCOC(=O)c1cc(O)c2cc(NC(=O)c3cccc(NC(=O)Nc4cccc(C(=O)Nc5ccc6cc(C(=O)OCC)cc(O)c6c5)c4)c3)ccc2c1 [6,6'-[Ureylenebis(m-phenylenecarbonylimino)]bis[4-hydroxy-2-naphthoic acid] diethyl ester]
inhibition at 30 µg/mL [2]: 57%

O=C(Nc1cccc(C(=O)Nc2ccc3cc(C(=O)O)cc(O)c3c2)c1)Nc1cccc(C(=O)Nc2ccc3cc(C(=O)O)cc(O)c3c2)c1 [6,6'-[Ureylenebis(m-phenylenecarbonylimino)]bis[4-hydroxy-2-naphthoic acid]]
inhibition at 30 µg/mL [2]: 92%

CCOC(=O)c1cc(OC(C)=O)c2cc(NC(=O)c3cccc(NC(=O)Nc4cccc(C(=O)Nc5ccc6cc(C(=O)OCC)cc(OC(C)=O)c6c5)c4)c3)ccc2c1 [6,6'-[Ureylenebis(m-phenylenecarbonylimino)]bis[4-hydroxy-2-naphthoic acid]diethyl ester diacetate]
inhibition at 30 µg/mL [2]: 7%

O=C([O-])CN(CCN(CC(=O)[O-])CC(=O)[O-])CC(=O)[O-].[Ca+2].[Ca+2] [Calcium ethylenediaminetetraacetate]
frequency of ulceration [3]: reduce the frequency of ulceration

Cc1ccc(C(=O)Nc2ccc(S(=O)(=O)O)c3cc(S(=O)(=O)O)cc(S(=O)(=O)O)c23)cc1NC(=O)c1cccc(NC(=O)Nc2cccc(C(=O)Nc3cc(C(=O)Nc4ccc(S(=O)(=O)O)c5cc(S(=O)(=O)O)cc(S(=O)(=O)O)c45)ccc3C)c2)c1 [Suramin]
inhibiting the activity of collagenase [4]: not inhibiting the action of collagenase

CC(=O)N[C@@H](CS)C(=O)O [acetylcysteine]
stability [5]: greater stability
treatment of acute and chronic corneal ulceration [6]: effective
frequency of ulceration [3]: reduce the frequency of ulceration

N[C@@H](CS)C(=O)O [cysteine]
collagenase inhibition [1]: collagenase inhibitors
treatment of acute and chronic corneal ulceration [6]: effective

O[C@@H](CS)[C@@H](O)CS [dithiothretol]
collagenase inhibition [1]: collagenase inhibitors

Cc1cc(-c2ccc(/N=N/c3c(S(=O)(=O)O)cc4cc(S(=O)(=O)O)cc(N)c4c3O)c(C)c2)ccc1/N=N/c1c(S(=O)(=O)O)cc2cc(S(=O)(=O)O)cc(N)c2c1O [trypan blue]
inhibiting the activity of collagenase [4]: inhibiting the activity of collagenase

sodium auriothiomalate
collagenase inhibition [1]: collagenase inhibitors

α2 -macroglobulin: Naturally occurring collagenase inhibitors include the serum components α2 -macroglobulin and β1-anticollagenase
collagenase inhibition [1]: collagenase inhibitors
